Source: US8173133B2, “Acyl pseudodipeptides which carry a functionalized auxiliary arm” (OM Pharma, priority 1999, dated 2012)
Values joined by “and” are separate entries in the source; they are usually repeats but may differ in a detail not shown here. Identical values can stand only once.

What was measured:
[1] = tested on: K562 cells; assay: activation of NK cell cytotoxicity against K562 target cells (LDH release); format: cell-based, human
Protocol: PBMC were recovered from buffy coats according to the procedure previously described in example 4.6. […] Cells were incubated under such conditions for 24 hours. K562 cells (human leukemia cell line, ATCC #CCL 243, 20110-2209 Manassas (Va.), U.S.A.) were maintained in culture using RPMI medium containing 10% FCS and subjected to 2 passages per week.
In order to make cytotoxicity measurement, PBMC and K562 cells were washed twice in HBSS and resuspended in Phenol Red-free RPMI medium containing 5% FCS. PBMC were divided into a round bottom 96-well plate so as to achieve a PBMC/target ratio of 20/1, 10/1 and 5/1 in 50 μl volume. 5000 K562 cells (target) were added in each well using 50 μl of Phenol Red-free RPMI. Final volume was 100 μl. The plate was centrifuged to promote contact then incubated at 37° C. for 4 hours.
Cytotoxicity was assayed using a non radioactive CytoTox 96 kit based on measuring LDH release during cell lysis (kit #G1780, batch #124100, Promega, Madison, Wis.) according to the supplier's instructions.
The percentage of cytotoxicity was calculated according to the following equation: […]

[2] = tested on: MxA protein; assay: MxA protein induction in dendritic cells (Western blot); format: cell-based, human; conditions: 1 μg/ml; after 24 hr and 48 hours; FIGS. 77, 78
Protocol: The ability of products of the invention to induce production of antiviral MxA protein by predendritic cells has been assessed. MxA production by cells was measured after an SDS-PAGE electrophoretic separation by a Western Blot assay
Extraction and analysis of protein was conducted as follows: cells were harvested, then washed 3 times with PBS (phosphate buffered saline) and lyzed with a 100 Mm Tris-HCl buffer, 150 mM NaCl, 5 mM EDTA, 1% Triton-100 containing 1 mM PMSF (phenylmethylsulphonyl fluoride) and 1 μ/ml of pepstatin as protease inhibitors. Lysis was carried out at a density of 10^6 cells for 100 μl of (5×) buffer containing 60 mM Tris-HCl (pH 6.8), 10% glycerol, 2% SDS, 14.4 mM 2-mercaptoethanol and 0.1% bromophenol). Samples were heated up to 95° C. for 5 min. in sealed Eppendorf tubes. Electrophoresis was performed on a 10 cm×10 cm 12% acrylamide minigel by running a sample having the same number of cells. Migration was effected with the following buffer: 25 mM Tris, 192 mM glycine, 0.1% SDS, pH 8.3. […]
Non specific bonding sites on the membrane were blocked with 5% skimmed milk in TBS (10 mM Tris-HCl, 150 Mm NaCl, pH 7.4) and allowing to stand for 1 hour at room temperature. […] In this system, HRP catalyzes a luminol-mediated chemiluminescent reaction which can be detected on a photographic film. […]

[3] = pyrogenicity in the rabbit model; format: in vivo, New Zealand white rabbits; conditions: for response in ° C. average (individual values): 3 rabbits
Protocol: 15 New Zealand white rabbits are divided into the following groups: • Group 1: 1.0 mg/kg • Group 2: 0.1 mg/kg • Group 3: 0.01 mg/kg • Group 4: 0.001 mg/kg • Group 5: water for injection
On the day of testing, rabbits are tightly held and weighed in boxes designed for this purpose. Temperature probes are inserted in the rectum are
1 hour after probe insertion, temperatures (preinjection) are recorded for 90 minutes and the mean value is calculated.
Each rabbit is then administered an i.v. injection of product or control (sterile water in 0.9% NaCl) via the marginal (lateral) ear vein. Temperature is measured at 30 minute intervals for 3 hours. Difference between the preinjection average temperature and maximum temperature is calculated and reported.
If the result obtained lies in-between, the test is repeated with 3 more rabbits.

SMILES	NK activity level ([1]; 1 μg/ml)	% cytotoxicity ([1]; Ratio PBMC:K562 5.1)	Optical density at 490 nm, K562 + PBMC ([1]; Ratio PBMC:K562 5.1)	Optical density at 490 nm, PBMC alone ([1]; Ratio PBMC:K562 5.1)	% cytotoxicity ([1]; Ratio PBMC:K562 10.1)	Optical density at 490 nm, K562 + PBMC ([1]; Ratio PBMC:K562 10.1)	Optical density at 490 nm, PBMC alone ([1]; Ratio PBMC:K562 10.1)	% cytotoxicity ([1]; Ratio PBMC:K562 20.1)	Optical density at 490 nm, K562 + PBMC ([1]; Ratio PBMC:K562 20.1)	Optical density at 490 nm, PBMC alone ([1]; Ratio PBMC:K562 20.1, stimulus 24 hours)	production of MxA protein [2]	pyrogenicity Results ([3]; 0.001 mg/Kg i.v.)	response in ° C. average (individual values) ([3]; 0.001 mg/Kg i.v.)	pyrogenicity Results ([3]; 0.01 mg/Kg i.v.)	response in ° C. average (individual values) ([3]; 0.01 mg/Kg i.v.)	pyrogenicity Results ([3]; 0.1 mg/Kg i.v.)	response in ° C. average (individual values) ([3]; 0.1 mg/Kg i.v.)	pyrogenicity Results ([3]; 1 mg/Kg i.v.)	response in ° C. average (individual values) ([3]; 1 mg/Kg i.v.)
CCCCCCCCCCCC(=O)O[C@H](CCCCCCCCCCC)CC(=O)NC(CCOP(=O)(O)O)C(=O)NCCCC(COC(=O)CCCCC(O)CO)NC(=O)C[C@H](O)CCCCCCCCCCC (stereo partly drawn) [OM-197-FV6, 3-[(R)-dodecanoyloxytetradecanoylamino]-4oxo-5-aza-9-[(R)-3-hydroxytetradecanoylamino]-decan-1,10-diol 1-dihydrogenphate 10-(6,7-dihydroxyheptanoate)]	comparable or slightly inferior to that induced by LPS	0%	1.4	0.079	12.9%	1.65	0.087	38.8%	2.1	0.11	significant rise	–	–	–	–	–	–	–	–
CCCCCCCCCCCC(=O)O[C@H](CCCCCCCCCCC)CC(=O)N[C@H](CC(=O)O)C(=O)NCCC[C@H](COP(=O)(O)O)NC(=O)C[C@H](O)CCCCCCCCCCC [OM-197-MC-MP, N—[(R)-3-dodecanoyloxytetradecanoyl]-D-aspartic acid, α-N-{(4R)-5-dihydroxyphosphoryloxy-4-[(R)-3-hydroxytetradecanoyl-amino]pentyl}amide]	–	–	–	–	–	–	–	–	–	–	–	non pyrogenic	0.35 (0.10, 0.05, 0.20) ° C. and 0.25 (0.00, 0.10, 0.15) ° C.	non pyrogenic	0.65 (0.00, 0.45, 0.20) ° C. and 0.35 (0.20, 0.15, 0.00) ° C.	pyrogenic	2.00 (1.45, 0.05, 0.50) ° C. and 2.85 (1.10, 1.20, 0.55) ° C.	pyrogenic	3.40 (1.50, 0.60, 1.30) ° C. and 3.25 (1.25, 1.45, 0.55) ° C.
